Data on 4 compounds can be found in ChEMBL document CHEMBL1150271, “Corymbones A and B, phloroglucinols with thyrotropin releasing hormone receptor 2 binding affinity from the flowers of Corymbia peltata” (J Nat Prod, 2008).

The source made the active and inactive calls. The rule behind the calls is not given here.

In general, IC50 refers to the concentration needed to halve the response being measured.

The target of assay [1] is T1, Thyrotropin-releasing hormone receptor 2 (Rattus norvegicus, UniProt A6IZR3).
T1 sequence (A6IZR3 whole entry): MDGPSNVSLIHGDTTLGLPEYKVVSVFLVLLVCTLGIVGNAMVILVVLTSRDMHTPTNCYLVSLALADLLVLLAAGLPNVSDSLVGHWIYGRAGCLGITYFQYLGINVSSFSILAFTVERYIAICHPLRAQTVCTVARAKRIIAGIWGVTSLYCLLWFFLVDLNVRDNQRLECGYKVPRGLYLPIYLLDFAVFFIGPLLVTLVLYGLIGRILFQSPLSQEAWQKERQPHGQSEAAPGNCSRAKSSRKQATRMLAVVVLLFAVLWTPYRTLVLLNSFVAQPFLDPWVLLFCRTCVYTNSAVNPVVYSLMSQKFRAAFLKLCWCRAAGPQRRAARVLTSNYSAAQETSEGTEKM
Nature of the assay: Displacement of [3H]3-methylhistidyl-TRH from rat recombinant TRH2 receptor expressed in […] cells. The class given is cell-based. (Loss of bound radioactivity is the signal in a displacement assay; it reports binding, not function.)

Assay [2] concerns the target T2, Thyrotropin-releasing hormone receptor 2 (Rattus norvegicus) (UniProt A6IZR3).
T2 sequence (whole entry): T1 sequence (A6IZR3 whole entry)
The assay can be described thus: Displacement of [3H]3-methylhistidyl-TRH from rat recombinant TRH2 receptor expressed in […] cells up to 1 mM. The class given is cell-based.

Take `NC(=O)[C@@H]1CCCN1C(=O)[C@H](Cc1cnc[nH]1)NC(=O)[C@@H]1CCC(=O)N1` [PROTIRELIN]: the IC50 in assay [1] came to 23 µM. On the same count and under the same terms, the same measure for `Cc1c(O)c(C(=O)CCc2ccccc2)c(O)c(C(CC(C)C)C2=C(O)C(C)(C)C(=O)C(C)(C)C2=O)c1O` (centres undefined) [CORYMBONE B]: 19 µM. On the same count and under the same terms, with `Cc1c(O)c(C(=O)CCc2ccccc2)c(O)c(C(CCc2ccccc2)C2=C(O)C(C)(C)C(=O)C(C)(C)C2=O)c1O` (centres undefined) [CORYMBONE A] the figure was 23 µM. For `Cc1c(O)cc(O)c(C(=O)CCc2ccccc2)c1O`, the result in assay [2] was inactive.
